Results as given in patent publication US11006631B2, “Substituted pyrimidinyloxy pyridine derivatives as herbicides” (FMC Corporation, priority 2015, dated 2021).

Assays:
Format in all cases: in vivo
kochia (Kochia scoparia) = test: Test A preemergence, kochia; conditions: 0 to 100 scale
In short: (§1)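 Plants are sown in a loam soil and sand blend, then treated with formulated compound either preemergence by directed soil spray or postemergence at one- to two-leaf stage. After approximately 10 days, injury is judged visually against untreated controls using a 0 to 100 control scale.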

[1] = test system: ryegrass, Italian (Italian ryegrass, Lolium multiflorum); test: Test A preemergence, ryegrass, Italian; conditions: 0 to 100 scale
In short: as §1

[2] = test system: barnyardgrass (Echinochloa crus-galli); test: Test A postemergence, barnyardgrass; conditions: 0 to 100 scale
In short: as §1

[3] = test system: ryegrass, Italian (Italian ryegrass, Lolium multiflorum); test: Test A postemergence, ryegrass, Italian; conditions: 0 to 100 scale
In short: as §1

[4] = test system: foxtail, giant (giant foxtail, Setaria faberii); test: Test A postemergence, foxtail, giant; conditions: 0 to 100 scale
In short: as §1

[5] = test system: pigweed (Amaranthus retroflexus); test: Test A postemergence, pigweed; conditions: 0 to 100 scale
In short: as §1

[6] = test system: wheat (Triticum aestivum); test: Test A postemergence, wheat; conditions: 0 to 100 scale
In short: as §1

[7] = test system: blackgrass (Alopecurus myosuroides); test: Test A postemergence, blackgrass; conditions: 0 to 100 scale
In short: as §1

[8] = test system: ducksalad (Heteranthera limosa); test: Test B flooded paddy test, ducksalad; conditions: Flood, 250 g ai/ha; scale of 0 to 100
In short: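 First, plants reach the 2-leaf stage; next, pots are flooded to 3 cm and compound is delivered into the water; finally, after 13 to 15 greenhouse days at constant depth, injury is graded visually from 0 to 100 against controls.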

[9] = test system: blackgrass (Alopecurus myosuroides); test: Test C postemergence, blackgrass
Description: (§2) Seeds of plant species selected from blackgrass (Alopecurus myosuroides), ryegrass, Italian (Italian ryegrass, Lolium multiflorum), wheat (winter wheat, Triticum aestivum), galium (catchweed bedstraw, Galium aparine), corn (Zea mays), crabgrass, large (large crabgrass, Digitaria sanguinalis), foxtail, giant (giant foxtail, Setaria faberii), lambsquarters (Chenopodium album), morningglory (Ipomoea coccinea), nutsedge, yellow (yellow nutsedge, Cyperus esculentus), pigweed (Amaranthus retroflexus), johnsongrass (Sorghum halepense), ragweed (common ragweed, Ambrosia elatior), soybean (Glycine max), barnyardgrass (Echinochloa crus-galli), oilseed rape (Brassica napus), waterhemp (common waterhemp, Amaranthus rudis), chickweed (common chickweed, Stellaria media), oat, wild (wild oat, Avena fatua), kochia (Kochia scoparia), and velvetleaf (Abutilon theophrasti) were planted in pots containing Redi-Earth® planting medium (Scotts Company, 14111 Scottslawn Road, Marysville, Ohio 43041) comprising spaghnum peat moss, vermiculite, wetting agent and starter nutrients and treated with postemergence applications of a test chemical formulated in a non-phytotoxic solvent mixture which included a surfactant. Plants ranged in height from 2 to 18 cm (1- to 4-leaf stage) for postemergence treatments. Treated plants and controls were maintained in a greenhouse for 13 to 15 days, after which time all species were compared to controls and visually evaluated. Plant response ratings, summarized in Table C, are based on a scale of 0 to 100 where 0 is no effect and 100 is complete control. A dash (-) response means no test result.

[10] = test system: ryegrass, Italian (Italian ryegrass, Lolium multiflorum); test: Test C postemergence, ryegrass, Italian
Description: as §2

[11] = test system: wheat (winter wheat, Triticum aestivum); test: Test C postemergence, wheat
Description: as §2, with “Plants ranged in height from 2 to 18 cm (1- to 4-leaf stage) for postemergence treatments.” left out, “Plant response ratings, summarized in Table C, are based on a scale of 0 to 100 where 0 is no effect and 100 is complete control. A dash (-) response means no test result.” left out

[12] = test system: galium (catchweed bedstraw, Galium aparine); test: Test C postemergence, galium
Description: as §2

[13] = test system: crabgrass, large (large crabgrass, Digitaria sanguinalis); test: Test C postemergence, crabgrass, large
Description: as §2

[14] = test system: foxtail, giant (giant foxtail, Setaria faberii); test: Test C postemergence, foxtail, giant
Description: as §2

[15] = test system: lambsquarters (Chenopodium album); test: Test C postemergence, lambsquarters
Description: as §2

[16] = test system: waterhemp (common waterhemp, Amaranthus rudis); test: Test C postemergence, waterhemp
Description: as §2

[17] = test system: chickweed (common chickweed, Stellaria media); test: Test C postemergence, chickweed
Description: as §2

FC(F)c1cc(-c2ncccc2Oc2ncc(Cl)cn2)on1 [Compound 5, 5-chloro-2-[[2-[3-(difluoromethyl)-5-isoxazolyl]-3-pyridinyl]oxy]pyrimidine]
Plant response rating, Kochia (kochia (Kochia scoparia); 31 g ai/ha): 10 | Plant response rating, Kochia (kochia (Kochia scoparia); 125 g ai/ha): 80 | Plant response rating, Ryegrass, Italian ([1]; 31 g ai/ha): 0 | Plant response rating, Ryegrass, Italian ([1]; 125 g ai/ha): 0 | Plant response rating, Barnyardgrass ([2]; 31 g ai/ha): 0 | Plant response rating, Barnyardgrass ([2]; 125 g ai/ha): 20 | Plant response rating, Ryegrass, Italian ([3]; 31 g ai/ha): 0 | Plant response rating, Ryegrass, Italian ([3]; 125 g ai/ha): 0 | Plant response rating, Foxtail, Giant ([4]; 31 g ai/ha): 0 | Plant response rating, Foxtail, Giant ([4]; 125 g ai/ha): 10 | Plant response rating, Pigweed ([5]; 31 g ai/ha): 80 | Plant response rating, Pigweed ([5]; 125 g ai/ha): 90 | Plant response rating, Wheat ([6]; 31 g ai/ha): 0 | Plant response rating, Wheat ([6]; 125 g ai/ha): 10 | Plant response rating, Blackgrass ([7]; 31 g ai/ha): 0 | Plant response rating, Blackgrass ([7]; 125 g ai/ha): 20 | Plant response rating, Ducksalad [8]: 75 | Plant response rating, Blackgrass ([9]; 16 g ai/ha): 0 | Plant response rating, Blackgrass ([9]; 31 g ai/ha): 0 | Plant response rating, Blackgrass ([9]; 62 g ai/ha): 0 | Plant response rating, Blackgrass ([9]; 125 g ai/ha): 5 | Plant response rating, Ryegrass, Italian ([10]; 16 g ai/ha): 0 | Plant response rating, Ryegrass, Italian ([10]; 31 g ai/ha): 5 | Plant response rating, Ryegrass, Italian ([10]; 62 g ai/ha): 0 | Plant response rating, Ryegrass, Italian ([10]; 125 g ai/ha): 5 | Plant response rating, Wheat ([11]; 16 g ai/ha): 5 | Plant response rating, Wheat ([11]; 31 g ai/ha): 5 | Plant response rating, Galium ([12]; 16 g ai/ha): 35 | Plant response rating, Galium ([12]; 31 g ai/ha): 75 | Plant response rating, Galium ([12]; 62 g ai/ha): 80 | Plant response rating, Galium ([12]; 125 g ai/ha): 90 | Plant response rating, Crabgrass, Large ([13]; 16 g ai/ha): 10 | Plant response rating, Crabgrass, Large ([13]; 31 g ai/ha): 15 | Plant response rating, Crabgrass, Large ([13]; 62 g ai/ha): 15 | Plant response rating, Crabgrass, Large ([13]; 125 g ai/ha): 15 | Plant response rating, Foxtail, Giant ([14]; 16 g ai/ha): 0 | Plant response rating, Foxtail, Giant ([14]; 31 g ai/ha): 5 | Plant response rating, Foxtail, Giant ([14]; 62 g ai/ha): 5 | Plant response rating, Foxtail, Giant ([14]; 125 g ai/ha): 10 | Plant response rating, Lambsquarters ([15]; 16 g ai/ha): 35 | Plant response rating, Lambsquarters ([15]; 31 g ai/ha): 70 | Plant response rating, Lambsquarters ([15]; 62 g ai/ha): 55 | Plant response rating, Lambsquarters ([15]; 125 g ai/ha): 60 | Plant response rating, Waterhemp ([16]; 16 g ai/ha): 60 | Plant response rating, Waterhemp ([16]; 31 g ai/ha): 65 | Plant response rating, Waterhemp ([16]; 62 g ai/ha): 75 | Plant response rating, Waterhemp ([16]; 125 g ai/ha): 85 | Plant response rating, Chickweed ([17]; 16 g ai/ha): 35 | Plant response rating, Chickweed ([17]; 31 g ai/ha): 40 | Plant response rating, Chickweed ([17]; 62 g ai/ha): 55 | Plant response rating, Chickweed ([17]; 125 g ai/ha): 60
